The source of these data is the METLIN SMRT retention time set (Domingo-Almenara et al. 2019).

The series can be described thus: gradient 5% acetonitrile 3 min, to 50% in 2 min, to 85% in 15 min, held 3 min, 100 µL/min. To be noted: column: Zorbax Extend-C18 2.1 x 50 mm; eluents: water / acetonitrile, 0.1% formic acid. The essentials: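 In both positive and negative ionization mode, a quadrupole time-of-flight mass spectrometer coupled to HPLC analyzed pure standards run in mixtures of ~100 molecules. The Zorbax Extend-C18 column (2.1 × 50 mm, 1.8 μm) was operated at 100 μL/min with water and acetonitrile, each containing 0.1% formic acid. The dead volume was 40 μL and the dwell volume 900 μL. Retention time came from adduct peaks that were computationally picked and individually inspected by hand.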
Take `Cc1cccc(NC(=O)Nc2ccc(-c3cccc4[nH]nc(N)c34)cc2)c1`: the RP-LC retention time was 789 s.

For the molecule `COc1ccc(N2CCN(c3nc(C(=O)N4CCN(C)CC4)cs3)CC2)cc1`, the RP-LC retention time amounted to 614 s.

`Cc1ccc(C)c(NC(=O)C2CCN(S(=O)(=O)c3ccc4c(c3)NC(=O)C(C)O4)CC2)c1` (stereo not given) came in with an RP-LC retention time of 824 s.

In turn, `CCOc1cccc(CNC(=O)c2c(C)sc3ccn(C)c(=O)c23)c1` displayed an RP-LC retention time of 804 s.

Regarding `O=C(Cc1ccc(F)cc1)Nc1ccc2cn[nH]c2c1`, the RP-LC retention time was 688 s.

`O=C(Nc1nnc(SCc2cn3ccccc3n2)s1)C1(c2cccs2)CCCC1` returned an RP-LC retention time of 611 s.

In the case of `COc1ccc(NC(=O)C2CCc3nc(N4CCCC4)ncc3C2)c(C)c1` (stereo not given), the RP-LC retention time turned out to be 698 s.

`CCC(c1cccs1)N1C(=O)[C@H]2CN(S(=O)(=O)c3cccc(C)c3)C[C@H]2C1=O` (stereo not given in full) registered an RP-LC retention time of 1040 s.

`COc1cccc(CNC(=O)C2CCN(S(=O)(=O)c3cn(C)cn3)CC2)c1` showed an RP-LC retention time of 656 s.

Consider `CCOc1ccc(NC(=O)C2CCCN(c3ncnc4c3nc3n4CCCCC3)C2)cc1` (stereo not given), for which the RP-LC retention time is 732 s.

`CC(C)NC(=O)N1CCCC(Cn2c(C3CC3)nc3cccnc32)C1` (stereo not given): the RP-LC retention time came out at 604 s.

`Cn1c(=O)c2nc(SCCC(=O)Nc3cc(F)cc(F)c3)n(C)c2n(C)c1=O` displayed an RP-LC retention time of 751 s.

As for `Cc1ccc(NC(=O)C2CCN(S(=O)(=O)c3ccc4c(c3)NC(=O)CO4)CC2)c(C)c1`, the RP-LC retention time is 732 s.

Molecule `Cc1ccc(NC(=O)C2(CCO)CCN(c3ncccn3)C2)cc1` (stereo not given) displayed an RP-LC retention time of 630 s.

In turn, `COCCn1cc(CCNC(=O)Nc2c(F)cccc2F)c2cccnc21` gave an RP-LC retention time of 660 s.

The molecule `CC1CCN(c2ncc(NC(=O)c3ccc(Br)cc3)cc2C(=O)O)CC1` had an RP-LC retention time of 759 s.

In turn, `COC(=O)c1c(NCc2ccccc2Br)c2cc(F)ccc2[nH]c1=O` registered an RP-LC retention time of 787 s.

`Cc1cccc(N(C)C(=O)CCS(=O)(=O)c2ccc3c(c2)CC(C)N3C(=O)C2CC2)c1` (stereo not given) showed an RP-LC retention time of 807 s.

`O=C(O)c1nn(Cc2ccc(Cl)cc2Cl)c2ccccc12`: the RP-LC retention time stood at 1050 s.

For `O=C(NC1CCCCCC1)c1ccc2ccnc(N3CCN(c4ccccc4F)CC3)c2c1`, the RP-LC retention time was found to be 973 s.

For `COc1cccc(-c2noc(CN3C(=O)COc4ccc(C(C)(C)C)cc43)n2)c1`, the RP-LC retention time turned out to be 1250 s.

Turning to `CCC(CO)NCC(O)COCc1ccc(Cl)cc1` (stereo not given), the RP-LC retention time turned out to be 552 s.

Molecule `CCCn1nc(C)cc1CN(C)c1ccc(NC(=O)CC)cc1C(=O)O` returned an RP-LC retention time of 618 s.

Take `Cc1csc(-c2cc(S(=O)(=O)NCC3CCCO3)cn2CC(=O)N2CCCCC2)n1` (stereo not given): the RP-LC retention time was 831 s.

Molecule `Nc1cccc(-c2nccnc2N2CCCC2)c1` showed an RP-LC retention time of 595 s.

Take `C[C@H]1CN(C(=O)C2(c3ccccc3)CC2)C[C@@H]1c1nc(-c2cccnc2)no1`: the RP-LC retention time was 827 s.

In turn, `Cc1ccccc1Cn1cc(-c2ccncc2)cc1C(=O)NCC1CCCO1` (stereo not given) showed an RP-LC retention time of 667 s.

`O=S(=O)(c1ccc(F)cc1F)N1CCC(c2noc(-c3ccc(F)cc3)n2)CC1` showed an RP-LC retention time of 1130 s.

Regarding `COc1cc(-c2noc(Cc3nnc(-c4ccc(C)c(F)c4)o3)n2)cc(OC)c1OC`, the RP-LC retention time was determined as 996 s.

For `CCNC(=O)C1CCCN(c2nc3ncn(CC(=O)N4CCc5ccccc5C4)c(=O)c3s2)C1` (stereo not given), the RP-LC retention time stood at 690 s.

Take `Cc1ccc(-c2nsc3c(=O)n(C)c(SCC(=O)N4CCOc5ccc(C)cc54)nc23)cc1`: the RP-LC retention time was 1220 s.

Consider `Cn1ccc2cc(CCC(=O)N3CCCC3)ccc21`, for which the RP-LC retention time was 789 s.

Consider `COc1ccc(C)cc1NC(=O)C1CCCN(c2ncnc3c2nc2n3CCCCC2)C1` (stereo not given), for which the RP-LC retention time was determined as 864 s.

For `O=C(N[C@H]1C[C@@H]2C[C@H]1N(S(=O)(=O)c1cc(F)cc(F)c1)C2)c1ccccc1`, the RP-LC retention time was 870 s.

Regarding `Cc1ccc(CNC(=O)C2(C)CCCN(C(=O)Nc3ccc(Br)cc3)C2)cc1` (stereo not given), the RP-LC retention time worked out at 1040 s.

Molecule `O=C(CN1CCN(c2ccccn2)CC1)Nc1nccs1` had an RP-LC retention time of 555 s.

`Cc1ccc2c(c1)C(c1ccc(F)cc1)N(C(=O)c1ccc(S(=O)(=O)N(C)C)cc1)CC(=O)N2` (stereo not given) had an RP-LC retention time of 885 s.

Consider `CC1CCN(CCCNC(=O)c2nnc(-c3ccc(S(=O)(=O)N4CCCC4)cc3)o2)CC1`, for which the RP-LC retention time was determined as 642 s.

For `Cc1ccc(F)cc1NC(=O)c1cc(C(C)C)n2nccc2n1`, the RP-LC retention time worked out at 1230 s.

The molecule `COC(=O)c1ccc(NC(=O)C(=O)NCC(O)c2sccc2C)cc1` (stereo not given) returned an RP-LC retention time of 707 s.

Take `Cc1ccn2cc(-c3ccc(NS(=O)(=O)c4ccc(Cl)cc4)cc3)nc2n1`: the RP-LC retention time was determined as 679 s.

As to `CC1Cc2cc(-c3cc(CC(=O)Nc4nc5ccccc5[nH]4)no3)ccc2O1` (stereo not given), the RP-LC retention time amounted to 657 s.

Consider `CCn1cccc1-c1nc(-c2ccncc2)no1`, for which the RP-LC retention time was found to be 833 s.

On to `COc1ccccc1N1CCN(c2ncc(C(=O)O)c(C)n2)CC1`, for which the RP-LC retention time is 750 s.

`CCOC(=O)c1ccc(NC(=O)C2=C(C)C(=O)OC23CCN(C(C)C)CC3)cc1` returned an RP-LC retention time of 657 s.

As to `COCCN1C(=O)CS(=O)C12CCN(C(=O)Nc1ccc3c(c1)OCCO3)CC2` (stereo not given), the RP-LC retention time is 608 s.

As to `Cc1ccc(C2=NC3(CCN(C(=O)c4cccs4)CC3)ON2)cc1`, the RP-LC retention time worked out at 810 s.

As for `CCn1c(CCc2ccccc2NS(=O)(=O)c2ccc3c(c2)OCCO3)nc2ccccc21`, the RP-LC retention time was 717 s.

`CCOc1ccc(NC(=O)c2c(O)c3cccnc3n(-c3cccc(F)c3)c2=O)cc1` had an RP-LC retention time of 1280 s.

As for `CCN(Cc1ccccc1)C(=O)CN1C(=O)C(O)(c2cccc(F)c2)c2ccccc21` (stereo not given), the RP-LC retention time was 655 s.

In the case of `CSc1ccc(-c2noc(Cn3c(=O)n(CC(C)C)c(=O)c4ccccc43)n2)cc1`, the RP-LC retention time was 1210 s.

`Clc1ccc(-c2nc(NC3CCCCCC3)c3ccccc3n2)cc1` displayed an RP-LC retention time of 1030 s.

For the molecule `CN1C(=O)COc2ccc(-c3csc(NC(=O)c4ccc(Br)cc4)n3)cc21`, the RP-LC retention time is 1040 s.

`CCCCN(CC)CCCNC(=O)C1CCCN(c2ncnc3c2nc2n3CCCCC2)C1` (stereo not given) displayed an RP-LC retention time of 611 s.

`Cc1ccc(-c2[nH]ncc2CN)cc1`: the RP-LC retention time turned out to be 562 s.

The molecule `Cc1cc(Cl)ccc1NC(=O)c1cc(C2CC2)on1` displayed an RP-LC retention time of 1040 s.

`O=C(CCc1conc1-c1ccc(F)cc1)NCC1CCCCC1` displayed an RP-LC retention time of 996 s.

As to `CNC(=O)NC1CCN(c2nc3cccnc3n(Cc3ccc(C)cc3)c2=O)CC1`, the RP-LC retention time turned out to be 860 s.

`CCc1ccc(NC(=O)C2CCN(S(=O)(=O)c3cn(C(C)C)cn3)CC2)cc1` gave an RP-LC retention time of 840 s.

In turn, `O=C(CSc1ncnc2c1oc1ccccc12)Nc1nc2ccccc2s1` yielded an RP-LC retention time of 902 s.

`Cn1nccc1-c1cccc(-c2noc(/C=C/c3ccccc3Cl)n2)c1` yielded an RP-LC retention time of 1290 s.

`COc1ccc(-c2noc(Cc3nnc(-c4cccc(F)c4)o3)n2)cc1F` displayed an RP-LC retention time of 1000 s.

`O=C(NC1CCCCC1)N(Cc1ccccn1)Cc1ccco1`: the RP-LC retention time was 635 s.

`CCCN1C(=O)c2c(C(=O)NCc3cccc(Cl)c3)ncn2CC1(C)C(=O)NC1CCCC1` (stereo not given) had an RP-LC retention time of 858 s.

In the case of `CSc1ccccc1NC(=O)C(=O)NN1CCN(C)CC1`, the RP-LC retention time was 559 s.

The molecule `Cc1ccsc1C(=O)NCCn1c(C)cnc1C1CCC1` displayed an RP-LC retention time of 596 s.

Molecule `CSc1ccccc1NC(=O)C(=O)NCC(C)(O)c1ccco1` (stereo not given) came in with an RP-LC retention time of 995 s.

As to `COc1ccccc1-c1nc2nccc(-c3ccco3)n2n1`, the RP-LC retention time turned out to be 836 s.

`Cc1ccccc1-c1noc(Cn2ccn3nc(-c4ccc5c(c4)OCO5)cc3c2=O)n1` registered an RP-LC retention time of 1040 s.

In the case of `CCOC(=O)CN1CC2=C(C1=O)C(c1ccc(OC)cc1)NC(=O)N2` (stereo not given), the RP-LC retention time was found to be 618 s.

The molecule `CC(=O)N1CCc2cc(C(=O)N(C)C)ccc21` yielded an RP-LC retention time of 595 s.

For `O=C(CSC1CCCC1)NCCCC(=O)Nc1cccc2cccnc12`, the RP-LC retention time is 781 s.

The molecule `Fc1cccc(-c2nn3c(CSc4ccccc4)nnc3s2)c1` returned an RP-LC retention time of 969 s.

Turning to `CCSc1nnc(-c2nn(C)c3c2CN(S(=O)(=O)c2ccc(C(C)C)cc2)CC3)n1CC`, the RP-LC retention time was 1090 s.

In turn, `Cc1cccc2c(C(=O)O)cc(N3CCN(C)CC3)nc12` yielded an RP-LC retention time of 596 s.

The molecule `CN1CCN(C(=O)C2CCN(c3nc4ccc(-c5ccccc5)nc4s3)CC2)CC1` came in with an RP-LC retention time of 672 s.

In the case of `CCn1cc(-c2nc(-c3ccc(F)cc3)no2)c(=O)c2cc(F)c(N3CCOCC3)cc21`, the RP-LC retention time worked out at 951 s.

The molecule `CCc1onc(C)c1C1CCCN1C(=O)Nc1cccc(F)c1` (stereo not given) had an RP-LC retention time of 832 s.

Turning to `Cc1ccc(CNC(=O)c2cn(-c3ccc(NC(=O)C4CC4)cn3)cn2)cc1`, the RP-LC retention time stood at 773 s.

Molecule `COc1cccc(S(=O)(=O)N2CCC3(CC2)C(OC)CN3c2cccc(F)c2)c1` (stereo not given) returned an RP-LC retention time of 1160 s.
